According to ChEMBL document CHEMBL5500425, “Designing Small Molecule PI3Kγ Inhibitors: A Review of Structure-Based Methods and Computational Approaches” (J Med Chem, 2024):

Assays:
[1] = Clearance in Beagle Dog at 1 micromol/kg, iv; type: ADME, Canis lupus familiaris; conditions: in vivo, dose 1 µmol/kg
[2] = Oral bioavailability in Beagle dog at 2 mg/kg; type: ADME, organism-based, Canis lupus familiaris; conditions: in vivo
[3] = biological target: T1, Phosphatidylinositol 4,5-bisphosphate 3-kinase catalytic subunit delta isoform (Homo sapiens, UniProt O00329); assay: Inhibition of P13Kdelta (unknown origin) in the presence of ATP by scintillation proximity assay
T1 sequence (O00329 whole entry): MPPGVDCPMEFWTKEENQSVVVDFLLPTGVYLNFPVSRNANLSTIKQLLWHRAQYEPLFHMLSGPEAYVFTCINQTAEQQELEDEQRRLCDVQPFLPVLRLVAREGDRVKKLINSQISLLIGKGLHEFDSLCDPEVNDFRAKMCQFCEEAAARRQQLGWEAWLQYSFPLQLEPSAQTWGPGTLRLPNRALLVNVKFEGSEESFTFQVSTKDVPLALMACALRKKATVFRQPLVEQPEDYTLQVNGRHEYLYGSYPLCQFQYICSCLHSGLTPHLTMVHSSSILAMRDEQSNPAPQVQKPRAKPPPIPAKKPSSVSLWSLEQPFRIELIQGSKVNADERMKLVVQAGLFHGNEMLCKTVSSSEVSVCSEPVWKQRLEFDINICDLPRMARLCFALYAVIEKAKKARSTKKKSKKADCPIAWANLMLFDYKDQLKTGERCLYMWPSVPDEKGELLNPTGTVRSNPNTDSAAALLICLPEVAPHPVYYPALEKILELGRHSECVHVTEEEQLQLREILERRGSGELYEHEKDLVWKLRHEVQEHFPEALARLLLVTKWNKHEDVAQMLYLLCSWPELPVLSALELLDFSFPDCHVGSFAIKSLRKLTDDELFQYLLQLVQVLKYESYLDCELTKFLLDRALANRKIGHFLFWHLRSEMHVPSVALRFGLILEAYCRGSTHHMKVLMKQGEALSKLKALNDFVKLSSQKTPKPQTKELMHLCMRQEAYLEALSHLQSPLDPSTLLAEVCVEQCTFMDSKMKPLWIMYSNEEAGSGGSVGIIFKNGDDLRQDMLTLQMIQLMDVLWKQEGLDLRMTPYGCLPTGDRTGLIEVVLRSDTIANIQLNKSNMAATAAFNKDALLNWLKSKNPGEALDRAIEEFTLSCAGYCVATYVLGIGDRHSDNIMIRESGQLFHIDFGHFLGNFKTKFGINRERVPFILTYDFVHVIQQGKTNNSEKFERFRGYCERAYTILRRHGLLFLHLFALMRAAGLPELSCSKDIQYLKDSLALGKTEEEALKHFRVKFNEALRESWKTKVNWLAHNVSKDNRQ

[4] = biological target: T2, Phosphatidylinositol 4,5-bisphosphate 3-kinase catalytic subunit gamma isoform (Homo sapiens, UniProt P48736); assay: Inhibition of human recombinant PI3Kgamma using phosphatidylinositol as substrate in presence of [gamma33P]ATP by scintillation proximity assay
Target sequence in this assay (P48736 whole entry, looked up, canonical isoform): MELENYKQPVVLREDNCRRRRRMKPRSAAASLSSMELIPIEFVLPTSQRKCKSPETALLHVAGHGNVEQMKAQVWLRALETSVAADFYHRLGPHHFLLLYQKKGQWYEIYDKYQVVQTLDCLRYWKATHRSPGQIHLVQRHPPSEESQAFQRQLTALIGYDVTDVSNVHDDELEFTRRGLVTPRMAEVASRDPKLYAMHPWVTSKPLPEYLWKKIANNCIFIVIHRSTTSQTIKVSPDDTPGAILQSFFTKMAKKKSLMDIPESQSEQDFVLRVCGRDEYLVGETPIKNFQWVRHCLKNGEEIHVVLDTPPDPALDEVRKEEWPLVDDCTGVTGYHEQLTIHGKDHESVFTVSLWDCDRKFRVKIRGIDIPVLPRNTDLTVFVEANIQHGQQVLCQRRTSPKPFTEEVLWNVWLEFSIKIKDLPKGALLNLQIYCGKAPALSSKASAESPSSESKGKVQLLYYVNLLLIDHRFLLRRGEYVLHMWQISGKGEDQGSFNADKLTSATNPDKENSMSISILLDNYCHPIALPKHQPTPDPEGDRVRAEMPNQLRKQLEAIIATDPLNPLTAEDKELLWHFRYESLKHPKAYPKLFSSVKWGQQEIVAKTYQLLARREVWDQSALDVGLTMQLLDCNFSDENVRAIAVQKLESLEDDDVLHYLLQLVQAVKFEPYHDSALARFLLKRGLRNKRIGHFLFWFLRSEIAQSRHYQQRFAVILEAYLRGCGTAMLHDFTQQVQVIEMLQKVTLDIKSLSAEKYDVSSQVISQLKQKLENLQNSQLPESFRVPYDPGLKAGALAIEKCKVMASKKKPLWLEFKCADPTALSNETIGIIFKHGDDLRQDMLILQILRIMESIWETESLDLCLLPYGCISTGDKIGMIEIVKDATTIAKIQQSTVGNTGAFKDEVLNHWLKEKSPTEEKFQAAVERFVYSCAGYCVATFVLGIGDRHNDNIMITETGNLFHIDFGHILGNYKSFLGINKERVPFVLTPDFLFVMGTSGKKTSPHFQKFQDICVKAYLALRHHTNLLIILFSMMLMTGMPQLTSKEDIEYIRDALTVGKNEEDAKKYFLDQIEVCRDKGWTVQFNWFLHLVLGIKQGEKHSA

[5] = biological target: Phosphatidylinositol 4,5-bisphosphate 3-kinase catalytic subunit alpha isoform (Homo sapiens, UniProt P42336); assay: Inhibition of PI3Kalpha (unknown origin) using […] as substrate preincubated for 10 mins followed by substrate addition by microplate reader analysis
[6] = Oral bioavailability in rat at 10 mg/kg; type: ADME, organism-based; conditions: in vivo
[7] = Inhibition of P13Kalpha (unknown origin) in the presence of ATP by scintillation proximity assay
[8] = biological target: T1, Phosphatidylinositol 4,5-bisphosphate 3-kinase catalytic subunit delta isoform; assay: Inhibition of human PI3Kdelta expressed in baculovirus infected Sf21 insect cells by ADP-Glo assay
[9] = biological target: T2, Phosphatidylinositol 4,5-bisphosphate 3-kinase catalytic subunit gamma isoform; assay: Inhibition of human PI3Kgamma expressed in baculovirus infected Sf21 insect cells by ADP-Glo assay
Target sequence in this assay (P48736 whole entry, canonical isoform): as the sequence (P48736 whole entry, looked up, canonical isoform) above

[10] = biological target: T2, Phosphatidylinositol 4,5-bisphosphate 3-kinase catalytic subunit gamma isoform; assay: Inhibition of PI3Kgamma (unknown origin)
Target sequence in this assay (P48736 whole entry, canonical isoform): as the sequence (P48736 whole entry, looked up, canonical isoform) above

[11] = biological target: T1, Phosphatidylinositol 4,5-bisphosphate 3-kinase catalytic subunit delta isoform; assay: Inhibition of PI3Kdelta (unknown origin)
[12] = biological target: Phosphatidylinositol 4,5-bisphosphate 3-kinase catalytic subunit beta isoform (Homo sapiens, UniProt P42338); assay: Inhibition of PI3Kbeta (unknown origin)
[13] = Inhibition of P13Kalpha (unknown origin)

Chain of Phosphatidylinositol 4,5-bisphosphate 3-kinase catalytic subunit alpha isoform (P42336 whole entry, canonical isoform): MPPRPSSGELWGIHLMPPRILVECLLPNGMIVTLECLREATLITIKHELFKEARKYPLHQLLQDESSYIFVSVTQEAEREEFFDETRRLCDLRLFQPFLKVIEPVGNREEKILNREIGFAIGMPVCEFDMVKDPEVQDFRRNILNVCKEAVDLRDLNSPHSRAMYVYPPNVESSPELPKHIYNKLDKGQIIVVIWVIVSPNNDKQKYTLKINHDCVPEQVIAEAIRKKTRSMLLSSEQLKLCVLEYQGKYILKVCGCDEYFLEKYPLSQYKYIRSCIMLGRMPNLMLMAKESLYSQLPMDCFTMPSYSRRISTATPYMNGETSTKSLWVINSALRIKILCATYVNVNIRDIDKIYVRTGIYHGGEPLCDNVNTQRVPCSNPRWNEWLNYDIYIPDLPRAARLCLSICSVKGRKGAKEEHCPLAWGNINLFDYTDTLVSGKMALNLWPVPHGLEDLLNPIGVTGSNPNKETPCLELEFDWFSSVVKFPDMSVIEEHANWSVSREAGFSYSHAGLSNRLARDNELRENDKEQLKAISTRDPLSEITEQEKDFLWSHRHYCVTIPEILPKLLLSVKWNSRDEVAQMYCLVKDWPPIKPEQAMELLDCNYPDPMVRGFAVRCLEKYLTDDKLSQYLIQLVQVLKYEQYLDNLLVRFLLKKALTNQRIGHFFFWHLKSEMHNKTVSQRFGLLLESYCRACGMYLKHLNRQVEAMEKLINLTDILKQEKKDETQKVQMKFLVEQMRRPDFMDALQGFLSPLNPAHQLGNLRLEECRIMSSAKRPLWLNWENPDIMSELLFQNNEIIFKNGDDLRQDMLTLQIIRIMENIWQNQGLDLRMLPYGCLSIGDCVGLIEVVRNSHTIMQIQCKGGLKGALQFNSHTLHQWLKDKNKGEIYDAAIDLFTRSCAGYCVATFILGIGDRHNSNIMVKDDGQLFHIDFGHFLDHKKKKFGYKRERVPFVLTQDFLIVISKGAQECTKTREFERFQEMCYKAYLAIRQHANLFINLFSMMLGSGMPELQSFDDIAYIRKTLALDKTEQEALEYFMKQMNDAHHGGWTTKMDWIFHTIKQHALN
Chain of Phosphatidylinositol 4,5-bisphosphate 3-kinase catalytic subunit beta isoform (P42338 whole entry, canonical isoform): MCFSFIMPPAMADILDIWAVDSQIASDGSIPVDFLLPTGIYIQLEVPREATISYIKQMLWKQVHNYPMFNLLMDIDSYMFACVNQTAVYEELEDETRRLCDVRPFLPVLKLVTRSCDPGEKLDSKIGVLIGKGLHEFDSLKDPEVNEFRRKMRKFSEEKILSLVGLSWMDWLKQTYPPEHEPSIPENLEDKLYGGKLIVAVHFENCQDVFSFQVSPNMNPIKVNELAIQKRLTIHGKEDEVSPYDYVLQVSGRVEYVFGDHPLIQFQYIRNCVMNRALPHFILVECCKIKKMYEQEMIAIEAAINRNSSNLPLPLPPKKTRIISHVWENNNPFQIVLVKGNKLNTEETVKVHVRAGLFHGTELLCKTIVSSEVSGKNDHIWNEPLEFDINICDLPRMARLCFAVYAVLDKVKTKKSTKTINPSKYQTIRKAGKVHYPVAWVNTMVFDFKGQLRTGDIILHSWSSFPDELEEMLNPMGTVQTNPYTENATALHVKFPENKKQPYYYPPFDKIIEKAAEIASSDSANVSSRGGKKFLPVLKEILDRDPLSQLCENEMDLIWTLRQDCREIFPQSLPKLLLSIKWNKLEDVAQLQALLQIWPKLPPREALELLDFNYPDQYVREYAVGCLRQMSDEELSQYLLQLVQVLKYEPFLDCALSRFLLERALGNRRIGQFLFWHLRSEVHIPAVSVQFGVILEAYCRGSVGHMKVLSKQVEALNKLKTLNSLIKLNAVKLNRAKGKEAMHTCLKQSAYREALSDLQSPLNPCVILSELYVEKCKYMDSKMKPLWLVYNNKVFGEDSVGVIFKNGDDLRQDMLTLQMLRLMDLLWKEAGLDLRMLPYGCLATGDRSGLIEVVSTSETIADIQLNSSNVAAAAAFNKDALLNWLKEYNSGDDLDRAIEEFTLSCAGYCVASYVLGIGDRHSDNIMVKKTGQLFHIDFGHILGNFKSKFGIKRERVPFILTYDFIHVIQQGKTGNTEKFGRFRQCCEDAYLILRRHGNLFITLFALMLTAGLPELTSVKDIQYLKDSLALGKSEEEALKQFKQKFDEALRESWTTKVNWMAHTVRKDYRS

CC(=O)Nc1nc(C)c(-c2cc3c(c(S(C)(=O)=O)c2)C(=O)N([C@@H](C)C2CC2)C3)s1
clearance [1]: 3.3 mL/min/kg | bioavailability [2]: 82%

Cc1cc(C(O)(CO)C(F)F)ccc1-c1cnc(N)c(C(=O)N2CC[C@H](CO)C2)n1 (stereo partly specified)
IC50 [3]: < 2000 nM | IC50 [4]: ≤ 100 nM

CC1(CCn2nc(-c3ccc(Cl)c(O)c3)c3c(N)ncnc32)COC1
IC50 [5]: 172 nM

Cc1ncc(-c2cc(-c3ccc(S(=O)(=O)NCC(C)(C)O)cc3C)cnc2N)o1
bioavailability [6]: 72% | IC50 [4]: 40 nM | IC50 [7]: 300 nM

Cc1nnc(-c2cc(-c3cc4c(c(S(C)(=O)=O)c3)C(=O)N([C@@H](C)C3CC3)C4)ccn2)[nH]1
IC50 [3]: < 2000 nM

Cc1cc(S(=O)(=O)N[C@H]2CC[C@H](O)CC2)ccc1-c1cnc(N)c(C(=O)C2CC2)n1
bioavailability [6]: 23% | IC50 [4]: 24 nM | IC50 [7]: 110 nM

Cc1nc(N)c2ncc(-c3cc(C(C)(O)CC(F)(F)F)ccc3C)n2n1 (stereo unspecified)
IC50 [3]: < 2000 nM

COc1cncc(-c2ccc3nc(-c4nc5c(C)cccc5[nH]4)oc3c2)c1
IC50 [8]: ≥ 5000 nM | IC50 [9]: < 250 nM

Clc1ccc(Cn2cc(-c3ccnc(-c4ncc(-c5ccccc5)[nH]4)c3)cn2)cc1
IC50 [3]: > 500 nM

CC(NC(=O)c1c(N)nn2cccnc12)c1cc(Cl)c2c(C#N)ncn2c1N1CCS(=O)(=O)C(C)C1 (stereo unspecified)
IC50 [10]: < 100 nM | IC50 [11]: < 2000 nM

Cc1cc(S(=O)(=O)N[C@H]2CC[C@H](O)CC2)ccc1-c1cnc2c(N)c(Cl)ccn12
IC50 [3]: ≤ 500 nM

CC(=O)c1c(C)n(-c2ccc(C)cc2)c2ccc(OCC(O)CNCc3ccc(Cl)cc3)cc12 (stereo unspecified)
IC50 [12]: > 20000 nM | IC50 [13]: > 20000 nM
